The results in this text go back to patent publication US20200268864A1, “CANCER VACCINE COMPOSITIONS AND METHODS FOR USING SAME TO TREAT CANCER” (Dana-Farber Cancer Institute, Inc., priority 2017, published 2020).

The structures appear in SMILES notation. “Also recorded” adds a separate entry of the source.

Assay [1] relates to STING pathway in BMDCs co-cultured with ID8 cells. Nature of the assay: Co-culture of BMDCs with drug-treated WT or Brca1-null ID8 cells. The assay is classed as cell-based, mouse. Conditions: co-cultured with drug-treated Brca1-null ID8 cells. Here is the method:
Brca-1 deficient ID8 cells were generated using a CRISPR double nickase plasmid. ID8 cells cultured in a 6-well plate were transfected with 2 μg/well of BRCA1 double nickase plasmid (sc419362-NIC, Santa Cruz Biotechnology) or control double nickase plasmid (SC-437281, Santa Cruz Biotechnology) using lipofectamine 3000 (Invitrogen). 48 hrs post-transfection, cells were passaged onto a 10 cm plate. After 24 h, puromycin (3 μg/mL) was added to the culture for selection. Puromycin resistant cells were selected and expanded. Due to a lack of a reliable mouse BRCA1 antibody for Western blot, cells were analyzed by DNA sequencing to confirm the disruption of functional Brca1 allele. To generate ID8 tumors, cultured ID8 cells were harvested and resuspended in serum free DMEM. Cells were then mixed with Matrigel (Corning). A total volume of 0.1 ml containing 5×10^6 ID8 cells and 40% Matrigel were injected subcutaneously into the flank of C57BL/6J mice.
Bone marrow cells were isolated from FVB/NJ mice and cultured in RPMI-1640 containing 10% FBS and 20 ng/ml GM-CSF. BMDCs (bone marrow derived dendritic cells) were harvested for in vitro co-culture assay on day 7 to day 10. About 3×10^5 PBM or PPM tumor cells were cultured in a 6-well plate for 24 hr. and then treated with DMSO or olaparib. […]

In the next assay the test system is PBM cells. Kind of assay: Cytosolic dsDNA (PicoGreen) and micronuclei staining, PBM cells. The assay is classed as cell-based, mouse. Conditions: 2.5 μM, 24 h. How it is done: (§1) PBM and PPM cells were cultured on chambered cell culture slides (BD Falcon). Cells were treated with 2.5 μM olaparib or vehicle control (DMSO) for 24 hours. Following the treatment, cells were incubated with culture media containing PicoGreen double-stranded DNA stain (200-fold dilution, Life Technologies). After one-hour incubation, cells were fixed with 4% paraformaldehyde in PBS (Santa Cruz Biotechnology) for 10 minutes. Cells were then washed twice with PBS and stained with 300 nM DAPI (Thermo Fisher Scientific) for 10 minutes. Coverslips were mounted using ProLong Diamond Antifade Mountant (Thermo Fisher Scientific). Staining was imaged using a Leica SP5X laser scanning confocal microscope.

Another assay relates to PPM cells. Kind of assay: Cytosolic dsDNA (PicoGreen) and micronuclei staining, PPM cells. The assay is classed as cell-based, mouse. Conditions: 2.5 μM, 24 h. Here is the method:
as §1

Another assay relates to PBM tumor tissues. Nature of the assay: Gene Set Enrichment Analysis of PBM tumor tissues. The assay is classed as in vivo, mouse. As to conditions: 18 days of treatment, vs vehicle; panel of 4604 genes. How it is done: RNA was isolated from tumor samples as described above, sequenced on the ion Torrent platform per manufacturer's instructions using a custom AmpliSeq panel targeting 4604 murine genes relevant to our studies, and raw data was processed using the Torrent Suite and AmpliSeqRNA plugin to give read counts per gene. Differential gene expression analyses were carried out using DESeq2 with default parameters to obtain log 2 fold change (MAP) and adjusted p-values (Benjamini-Hochberg procedure) (Love et al. (2014) Genorme Biol. 15:550). Genes were ranked by log 2 fold change (MAP), and GSEA were carried out using the GSEAPreranked tool (Mootha et al. (2003) Nat. Genet. 34:267-273; Subramanian et al. (2005) Proc. Natl. Acad. Sci. USA 102:15545-15550). PCA were carried out using DESeq2.

Turning to `O=C(c1cc(Cc2n[nH]c(=O)c3ccccc23)ccc1F)N1CCN(C(=O)C2CC2)CC1` [olaparib, Olaparib], the “p-TBK1+p-IRF3+ and IFN-β (STING pathway activation) in wild-type BMDCs” value in assay [1] is listed as “Increased; also recorded: activation of STING pathway occurred”. Moreover, the figures for the “cytosolic dsDNAs and micronuclei” value in the assay with PBM cells and in the assay with PPM cells were “increased” and “not”, respectively. For the same compound, in the assay on PBM tumor tissues, the “GSEA: expression of immune-related gene sets” value was “markedly upregulated expression of genes associated with immune response, T-cell activation and interferon-γ (IFNγ) response”.
